Laboratory results from EP3991725B1, “NOVEL ENTERO-ANTISEPTIC FOR THE TREATMENT OF GASTROINTENSTINAL INFECTIONS IN HUMANS” (Ninkov, Dusan, priority 2020, dated 2022).

Experiments:
[1] = system: mice; test: Acute toxicity LD50, parenteral - intraperitoneal (i.p.), mice; details: mouse, in vivo
[2] = system: rats; test: Acute toxicity LD50, parenteral - intraperitoneal (i.p.), rats; details: i.p. dose 2,500 mg/kg
[3] = system: rats; test: Acute toxicity LD50, oral (p.o.), rats; details: oral dose 2,500 mg/kg
[4] = system: Salmonella; test: Comparative in vitro examination of selected pathogens, zone diameter; assay type: cell-based; details: (Müller)Hinton-Agar; amount used: The novel compound 0.05 mL; Cephalosporin 0.1 mL; Ampicillin 0.2 mL
[5] = system: Escherichia coli 0157H5; test: as above; assay type: cell-based; details: (Müller)Hinton-Agar; amount used: The novel compound 0.05 mL; Cephalosporin 0.1 mL; Ampicillin 0.2 mL
[6] = system: Streptococcus pneumonia; test: as above; assay type: cell-based; details: (Müller)Hinton-Agar; amount used: The novel compound 0.05 mL; Cephalosporin 0.1 mL; Ampicillin 0.2 mL
[7] = system: Salmonella typhimurium DT104; test: as above; assay type: cell-based; details: (Müller)Hinton-Agar; amount used: The novel compound 0.05 mL; Cephalosporin 0.1 mL; Ampicillin 0.2 mL
[8] = system: Vibrio; test: as above; assay type: cell-based; details: (Müller)Hinton-Agar; amount used: The novel compound 0.05 mL; Cephalosporin 0.1 mL; Ampicillin 0.2 mL
[9] = system: Shigella; test: as above; assay type: cell-based; details: (Müller)Hinton-Agar; amount used: The novel compound 0.05 mL; Cephalosporin 0.1 mL; Ampicillin 0.2 mL
[10] = system: Listeria monocytogenes; test: as above; assay type: cell-based; details: (Müller)Hinton-Agar; amount used: The novel compound 0.05 mL; Cephalosporin 0.1 mL; Ampicillin 0.2 mL
[11] = system: E. coli; test: as above; assay type: cell-based; details: (Müller)Hinton-Agar; amount used: The novel compound 0.05 mL; Cephalosporin 0.1 mL; Ampicillin 0.2 mL
[12] = system: Listeria; test: as above; assay type: cell-based; details: (Müller)Hinton-Agar; amount used: The novel compound 0.05 mL; Cephalosporin 0.1 mL; Ampicillin 0.2 mL
[13] = system: mice; test: Acute toxicity LD50, oral (p.o.), mice; details: oral dose 2,000 mg/kg
[14] = system: Campylobacter; test: Comparative in vitro examination of selected pathogens, zone diameter; assay type: cell-based; details: (Müller)Hinton-Agar; amount used: The novel compound 0.05 mL; Cephalosporin 0.1 mL; Ampicillin 0.2 mL
[15] = system: Streptococcus uberis; test: as above; assay type: cell-based; details: (Müller)Hinton-Agar; amount used: The novel compound 0.05 mL; Cephalosporin 0.1 mL; Ampicillin 0.2 mL
[16] = system: Staphylococcus aureus; test: as above; assay type: cell-based; details: (Müller)Hinton-Agar; amount used: The novel compound 0.05 mL; Cephalosporin 0.1 mL; Ampicillin 0.2 mL
[17] = system: humans; test: Clinical pilot study for side effects of the compound tablets; assay type: in vivo; details: 60 humans; 250 mg / 30 kg of the body weight every 12 hours for seven (7) days
Method: The reason for this testing was to check if the compound tablets, after a longer period of use, can cause any eventual side effects.
The test results were generated and monitored to obtain the relevant information and facts. In this study, the general monitored parameters were pulse, breathing, ECG (Electrocardiography), any discomfort, adverse events and/or allergy monitoring. These parameters were measured before the treatment with the compound and 15 minutes after its intake. The compound was ingested on the therapeutic days in each patient at 8.00 AM and 8.00 PM CET (paragraph [0026] and paragraph [0027]). After The compound had been consumed, the physician made observations for 30 min. Feeling of the patients during and after the intake of the compound will also be recorded for each participant.
As part of the biochemical analysis of patients' blood, the blood sample of each patient was checked for biochemical parameters. Blood samples were taken from each patient before the beginning of the test, on the 4th day from the tests beginning, and on the 8th day form the tests beginning. The last blood samples have to be checked 12 hours from the last intake of the compound. The biochemical parameters that were measured in blood samples include: • 1. Liver status • 2. C Reactive protein • 3. Kidney Status
The dose was: 250 mg of the compound / 30 kg of the body weight every 12 hours for seven (7) days (paragraph [0026] and paragraph [0027]).
The clinical study started on November 5th, 2019, and was completed on November 29th, 2019.

[18] = system: bacteria; test: In vitro studies of bactericide effect; assay type: cell-based; details: compared with Thymol and Carvacrol
From the text: Their physiological activity is well known. […] The phenol groups of both Thymol and Carvacrol are very aggressive to pathogens: bacteria, fungi etc. These groups are needed for bioactivity of our product. What has been done was making the phenol group less reactive by reacting them with carboxylic and amino group of glycine. The product should be administered p.o. (per os). The novelty idea was to hydrolyze a part of the new molecule in the stomach by hydrochloric acid. Carvacrol and an ester of Glycine and Thymol will be slowly hydrolyzed into Thymol and Glycine. […] The subject of this invention is to produce a potent entero-antiseptic for the treatment gastrointestinal infections in humans.

[19] = system: mammalian cells, mitotic division; test: Pilot test of effect on mitotic cell division; assay type: cell-based; details: the compound in tablet form
From the text: In the pilot test at the same Institute, the effect of the compound on the mammalian cells, mitotic division has also been tested. It has been investigated if the compound in tablet form will have any negative - suppressive effect on the mitotic cells division. […] It is a positive sign that the compound in tablet form might be used for on pregnant mammals, without danger of the teratogenic effect on the fetus in the wombs, by the pregnant mammals.

[20] = system: Salmonella strain which requires histidine; test: Ames test (mutagenic and carcinogenic effect); assay type: cell-based
From the text: (The subject of the testing was to determine the mutagenic and carcinogenic effect of the compound in tablet form). The test has been done by the Ames test. This test which is a widely and often used method that use pathogens in most cases bacteria's in order to test whether a given chemical, compound and/or medicine can cause any damage to the DNA of the test organism. This method is fast to conduct and easy to follow to check mutagenic or carcinogenic effect of the tested compound. In the lab dish with a the specially selected Salmonella strain which requires histidine, was added to a rat liver extract. The test has been done using the control-experimental method. In the dish volume of the 20 mL of liquid considered to be a control one, had no the compound in it. Into the dish we consider to be experimental one with also a volume of 20 mL, we added 2 mL of the compound, partly diluted into a glucose injectable solution. The mutagenic test results were negative in both lab dishes - control and experimental plates. The results were identical with no signs of the mutations.

[21] = system: Streptococcus pyogenes; test: Comparative in vitro examination of selected pathogens, zone diameter; assay type: cell-based; details: (Müller)Hinton-Agar; amount used: The novel compound 0.05 mL; Cephalosporin 0.1 mL; Ampicillin 0.2 mL
[22] = system: Yersinia; assay type: cell-based; details: (Müller)Hinton-Agar; amount used: The novel compound 0.05 mL; Cephalosporin 0.1 mL; Ampicillin 0.2 mL
[23] = system: rats; details: oral (p.o.), Carvacrol 99,5% concentration, reference value; cited from earlier work
[24] = phenol group of Carvacrol; cited from earlier work

Question: With “2-(2-isopropyl-5-methylphenoxy)-2-oxoethan-1-aminium 2-isopropyl-5-methylphenolate [The novel compound]” as the compound, how does the “mice out of a hundred (100) that changed their behavior and demonstrated discomfort” value [1] read?
Answer: 27

Question: And the “time after which discomfort symptoms disappeared” value [1]?
Answer: 3 to 5 min

Question: What about the “rats out of a hundred (100) that changed their behavior and demonstrated discomfort” value [2] of the same compound?
Answer: 35

Question: And the “rats out of a hundred (100) that changed their behavior and demonstrated light discomfort” value [3]?
Answer: 37

Question: What about the “R (evaluation of the results by zone diameter)” value [4] of the same compound?
Answer: E S

Question: What about the zone diameter [4] of the same compound?
Answer: 34 mm

Question: And the “R (evaluation of the results by zone diameter)” value [5]?
Answer: E S

Question: What about the zone diameter [5] of the same compound?
Answer: 29 mm

Question: What about the “R (evaluation of the results by zone diameter)” value [6] of the same compound?
Answer: E S

Question: And the zone diameter [6]?
Answer: 36 mm

Question: What about the “R (evaluation of the results by zone diameter)” value [7] of the same compound?
Answer: E S

Question: And the zone diameter [7]?
Answer: 30 mm

Question: And the “R (evaluation of the results by zone diameter)” value [8]?
Answer: E S

Question: And the zone diameter [8]?
Answer: 33 mm

Question: What about the “R (evaluation of the results by zone diameter)” value [9] of the same compound?
Answer: E S

Question: And the zone diameter [9]?
Answer: 31 mm

Question: And the “R (evaluation of the results by zone diameter)” value [10]?
Answer: E S

Question: And the zone diameter [10]?
Answer: 38 mm

Question: And the “R (evaluation of the results by zone diameter)” value [11]?
Answer: E S

Question: What about the zone diameter [11] of the same compound?
Answer: 32 mm

Question: And the “R (evaluation of the results by zone diameter)” value [12]?
Answer: E S

Question: And the zone diameter [12]?
Answer: 32 mm

Question: And the “mice out of a hundred (100) that changed their behavior and demonstrated light discomfort” value [13]?
Answer: 21

Question: And the “R (evaluation of the results by zone diameter)” value [14]?
Answer: E S

Question: And the zone diameter [14]?
Answer: 35 mm

Question: What about the “R (evaluation of the results by zone diameter)” value [15] of the same compound?
Answer: E S

Question: And the zone diameter [15]?
Answer: 37 mm

Question: What about the “R (evaluation of the results by zone diameter)” value [16] of the same compound?
Answer: E S

Question: And the zone diameter [16]?
Answer: 32 mm

Question: And the “C Reactive Protein (CRP) measurements” value [17]?
Answer: no inflammation was developed

Question: And the Electrocardiography measurements [17]?
Answer: regular without any pathological and irregular oscillations

Question: What about the “kidney functions (urine and blood parameters)” value [17] of the same compound?
Answer: No irregular parameters were reported

Question: And the “liver function biochemical analysis from blood samples” value [17]?
Answer: No irregular parameters were reported

Question: And the “pulse frequency and blood pressure” value [17]?
Answer: not significantly altered

Question: And the respiratory function [17]?
Answer: not disturbed

Question: And the symptoms of allergy [17]?
Answer: no symptoms of allergy

Question: And the “tolerance to the compound upon the prescribed dosage” value [17]?
Answer: showed tolerance

Question: And the bactericide effect [18]?
Answer: more effective and faster bactericide effect than existing Thymol and Carvacrol

Question: And the “negative - suppressive effect on the mitotic cells division” value [19]?
Answer: no negative effects

Question: What about the mutagenic test results ([20]; Ames test, rat liver extract, 2 mL of the compound, partly diluted into a glucose injectable solution, in 20 mL dish, preliminary result) of the same compound?
Answer: negative

Question: What about the carcinogenic effect ([20]; suggested from the negative Ames test result, the compound in tablet form) of the same compound?
Answer: no carcinogenic effect

Question: And the “R (evaluation of the results by zone diameter)” value [21]?
Answer: E S

Question: And the zone diameter [21]?
Answer: 34 mm

Question: And the “R (evaluation of the results by zone diameter)” value [22]?
Answer: E S

Question: And the zone diameter [22]?
Answer: 30 mm

Question: With `CC1(C)S[C@@H]2[C@H](NC(=O)[C@H](N)c3ccccc3)C(=O)N2[C@H]1C(=O)O` [Ampicillin] as the compound, how does the “R (evaluation of the results by zone diameter)” value [4] read?
Answer: M S

Question: What about the zone diameter [4] of the same compound?
Answer: 8 mm

Question: What about the “R (evaluation of the results by zone diameter)” value [5] of the same compound?
Answer: M S

Question: What about the zone diameter [5] of the same compound?
Answer: 7 mm

Question: And the “R (evaluation of the results by zone diameter)” value [6]?
Answer: R (0mm - 4mm: resistant: R)

Question: And the zone diameter [6]?
Answer: 0 mm

Question: What about the “R (evaluation of the results by zone diameter)” value [7] of the same compound?
Answer: M S

Question: And the zone diameter [7]?
Answer: 6 mm

Question: What about the “R (evaluation of the results by zone diameter)” value [8] of the same compound?
Answer: R (0mm - 4mm: resistant: R)

Question: And the zone diameter [8]?
Answer: 4 mm

Question: What about the “R (evaluation of the results by zone diameter)” value [9] of the same compound?
Answer: M S

Question: What about the zone diameter [9] of the same compound?
Answer: 6 mm

Question: And the “R (evaluation of the results by zone diameter)” value [10]?
Answer: M S

Question: What about the zone diameter [10] of the same compound?
Answer: 5 mm

Question: What about the “R (evaluation of the results by zone diameter)” value [11] of the same compound?
Answer: R (0mm - 4mm: resistant: R)

Question: And the zone diameter [11]?
Answer: 2 mm

Question: And the “R (evaluation of the results by zone diameter)” value [12]?
Answer: R (0mm - 4mm: resistant: R)

Question: And the zone diameter [12]?
Answer: 2 mm

Question: What about the “R (evaluation of the results by zone diameter)” value [14] of the same compound?
Answer: R (0mm - 4mm: resistant: R)

Question: And the zone diameter [14]?
Answer: 0 mm

Question: What about the “R (evaluation of the results by zone diameter)” value [15] of the same compound?
Answer: R (0mm - 4mm: resistant: R)

Question: And the zone diameter [15]?
Answer: 0 mm

Question: And the “R (evaluation of the results by zone diameter)” value [16]?
Answer: R (0mm - 4mm: resistant: R)

Question: What about the zone diameter [16] of the same compound?
Answer: 0 mm

Question: What about the “R (evaluation of the results by zone diameter)” value [21] of the same compound?
Answer: R (0mm - 4mm: resistant: R)

Question: What about the zone diameter [21] of the same compound?
Answer: 3 mm

Question: What about the “R (evaluation of the results by zone diameter)” value [22] of the same compound?
Answer: R (0mm - 4mm: resistant: R)

Question: And the zone diameter [22]?
Answer: 1 mm

Question: For `Cc1ccc(C(C)C)cc1O` [Carvacrol], which LD50 [23] is on record?
Answer: 810 mg/kg

Question: And the pKa [24]?
Answer: 10.4
